Here are results for eight molecules from patent publication US20020111353A1, “Inhibitors of c-Jun N-terminal kinases (JNK) and other protein kinases” (priority 2000, published 2002).

Format in all cases: biochemical
In one assay the target is activated p38 (Homo sapiens, UniProt Q16539). Description: p38 inhibition assay. The note with it: read-out: p38 (Ki rating). The method, then:
Two splice variants of human p38 kinase, CSBP1 and CSBP2, have been identified. […] The polymerase chain reaction product was cloned into the pET-15b vector (Novagen). The baculovirus transfer vector, pVL-(His)6-p38 was constructed by subcloning a XbaI-BamHI fragment of pET15b-(His)6-p38 into the complementary sites in plasmid pVL1392 (Pharmingen).
p38 was activated by combining 0.5 mg/ml p38 with 0.005 mg/ml DD-double mutant MKK6 in Buffer B+10 mM MgCl2, 2 mM ATP, 0.2 mM Na2VO4 for 30 minutes at 20° C. The activation mixture was then loaded onto a 1.0×10 cm MonoQ column (Pharmacia) and eluted with a linear 20 column volume gradient to 1.0 M NaCl in Buffer B. The activated p38 eluted after the ADP and ATP. The activated p38 peak was pooled and dialyzed against buffer B+0.2 mM Na2VO4 to remove the NaCl. The dialyzed protein was adjusted to 1.1M potassium phosphate by addition of a 4.0M stock solution and loaded onto a 1.0×10 cm HIC (Rainin Hydropore) column previously equilibrated in Buffer D (10% glycerol, 20 mM β-glycerophosphate, 2.0 mM DTT) +1.1MK2HPO4. The protein was eluted with a 20 column volume linear gradient to Buffer D+50 mM K2HPO4. The double phosphorylated p38 eluted as the main peak and was pooled for dialysis against Buffer B+0.2 mM Na2VO4 The activated p38 was stored at −70° C.
This assay is carried out in the presence of 10 mM MgCl2 and 100 mM HEPES buffer at pH 7.6. For a typical IC50 determination, a stock solution is prepared containing all of the above components and activated p38 (5 nM). The stock solution is aliquotted into vials. A fixed volume of DMSO or inhibitor in DMSO (final concentration of DMSO in reaction is 5%) is introduced to each vial, mixed and incubated for 15 minutes at room temperature. EGF receptor peptide, […], a phosphoryl acceptor in p38-catalyzed kinase reaction, is added to each vial to a final concentration of 200 μM. The kinase reaction is initiated with ATP (100 μM) and the vials are incubated at 30° C. After 30 minutes, the reactions are quenched with equal volume of 10% trifluoroacetic acid (TFA).
The phosphorylated peptide is quantified by HPLC analysis. Separation of phosphorylated peptide from the unphosphorylated peptide is achieved on a reverse phase column (Deltapak, 5 μm, C18 100D, part no. 011795) with a binary gradient of water and acteonitrile, each containing 0.1% TFA. IC50 (concentration of inhibitor yielding 50% inhibition) is determined by plotting the % activity remaining against inhibitor concentration.
This assay is carried out in the presence of 10 mM MgCl2, 25 mM β-glycerophosphate, 10% glycerol and 100 mM HEPES buffer at pH 7.6. For a typical Ki determination, the Km for ATP in the ATPase activity of activated p38 reaction is determined in the absence of inhibitor and in the presence of two concentrations of inhibitor. Ki is determined from the rate data as a function of inhibitor and ATP concentrations. A stock solution is prepared containing all of the above components and activated p38 (60 nM). The stock solution is aliquotted into vials. A fixed volume of DMSO or inhibitor in DMSO (final concentration of DMSO in reaction is 2.5%) is introduced to each vial, mixed and incubated for 15 minutes at room temperature. The reaction is initiated by adding various concentrations of ATP and then incubated at 30° C. After 30 minutes, the reactions are quenched with 50 μl of EDTA (0.1 M, final concentration), pH 8.0. The product of p38 ATPase activity, ADP, is quantified by HPLC analysis.
Separation of ADP from ATP is achieved on a reversed phase column (Supelcosil, LC-18, 3 μm, part no. 5-8985) using a binary solvent gradient of following composition: Solvent A—0.1 M phosphate buffer containing 8 mM tetrabutylammonium hydrogen sulfate (Sigma Chemical Co., catalogue no. T-7158), Solvent B—Solvent A with 30% methanol.

A further assay addresses JNK1 (Homo sapiens, UniProt P45983). Description: JNK1 inhibition assay (spectrophotometric coupled-enzyme assay, analogous to JNK3). The note with it: read-out: JNK1 (Ki rating). The method, then: (§1) Compounds were assayed for the inhibition of JNK3 by a spectrophotometric coupled-enzyme assay. In this assay, a fixed concentration of activated JNK3 (10 nM) was incubated with various concentrations of a potential inhibitor dissolved in DMSO for 10 minutes at 30° C. in a buffer containing 0.1 M HEPES buffer, pH 7.5, containing 10 mM MgCl2, 2.5 mM phosphoenolpyruvate, 200 μM NADH, 30 μg/mL pyruvate kinase, 10 μg/mL lactate dehydrogenase, and 200 μM EGF receptor peptide. The EGF receptor peptide has the sequence […], and is a phosphoryl acceptor in the JNK3-catalyzed kinase reaction. The reaction was initiated by the addition of 10 μM ATP and the assay plate is inserted into the spectrophotometer's assay plate compartment that was maintained at 30° C. The decrease of absorbance at 340 nm was monitored as a function of time. The rate data as a function of inhibitor concentration was fitted to competitive inhibition kinetic model to determine the Ki.
(§2) The JNK1 and JNK2 assays were performed in an analogous manner.

The target of another assay is T1, activated JNK3 (Homo sapiens, UniProt P53779).
T1 construct: One such construct encodes amino acid residues Ser40-Glu402 of JNK3α1 and is preceded by Met and Gly residues; Met-Gly (added initiation methionine and glycine, from the NcoI cloning site) (N); made in house; host or cells: E. coli BL21 (DE3)
Description: JNK3 inhibition, spectrophotometric coupled-enzyme assay. The note with it: for Ki: activated JNK3 10 nM, 10 μM ATP, 30° C., read-out: JNK3 (Ki rating); for p38/JNK3: ratio of p38 to JNK3 activity as a measure of selectivity.
Source text: A BLAST search of the EST database using the published JNK3α1 cDNA as a query identified an EST clone (#632588) that contained the entire coding sequence for human JNK3α1. Polymerase chain reactions (PCR) using pfu polymerase (Strategene) were used to introduce restriction sites into the CDNA for cloning into the pET-15B expression vector at the NcoI and BamHI sites. The protein was expressed in E. coli. Due to the poor solubility of the expressed full-length protein (Met 1-Gln 422), an N-terminally truncated protein starting at Ser residue at position 40 (Ser 40) was produced. This truncation corresponds to Ser 2 of JNK1 and JNK2 proteins, and is preceded by a methionine (initiation) and a glycine residue. The glycine residue was added in order to introduce an NcoI site for cloning into the expression vector. In addition, systematic C-terminal truncations were performed by PCR to identify a construct that give rise to diffraction-quality crystals. One such construct encodes amino acid residues Ser40-Glu402 of JNK3α1 and is preceded by Met and Gly residues.
Five mg of JNK3 was diluted to 0.5 mg/ml in 50 mM HEPES buffer, pH 7.5, containing 100 mM NaCl, 5 mM DTT, 20 mM MgCl2 and 1 mM ATP. GST-MKK7(DD) was added at a molar ratio of 1:2.5 GST-MKK7:JNK3. After incubation for 30 minutes at 25° C., the reaction mixture was concentrated 5-fold by ultrafiltration in a Centriprep-30 (Amicon, Beverly, Mass.), diluted to 10 ml and an additional 1 mM ATP added. This procedure was repeated three times to remove ADP and replenish ATP. The final addition of ATP was 5 mM and the mixture incubated overnight at 4° C.
The activated JNK3/GST-MKK7(DD) reaction mixture was exchanged into 50 mM HEPES buffer, pH 7.5, containing 5 mM DTT and 5% glycerol (w/v) by dialysis or ultrafiltration. The reaction mixture was adjusted to 1.1 M potassium phosphate, pH 7.5, and purified by hydrophobic interaction chromatography (at 25° C.) using a Rainin Hydropore column. […] Activated JNK3 (i.e. doubly phosphorylated JNK3) was stored at −70° C. at 0.25-1 mg/ml.
as §1

The target in a further assay is JNK2 (Homo sapiens, UniProt P45984). Description: JNK2 inhibition assay (spectrophotometric coupled-enzyme assay, analogous to JNK3). The note with it: read-out: JNK2 (Ki rating). The method, then: as §1, §2
Chain of JNK2 (P45984 whole entry, species assumed): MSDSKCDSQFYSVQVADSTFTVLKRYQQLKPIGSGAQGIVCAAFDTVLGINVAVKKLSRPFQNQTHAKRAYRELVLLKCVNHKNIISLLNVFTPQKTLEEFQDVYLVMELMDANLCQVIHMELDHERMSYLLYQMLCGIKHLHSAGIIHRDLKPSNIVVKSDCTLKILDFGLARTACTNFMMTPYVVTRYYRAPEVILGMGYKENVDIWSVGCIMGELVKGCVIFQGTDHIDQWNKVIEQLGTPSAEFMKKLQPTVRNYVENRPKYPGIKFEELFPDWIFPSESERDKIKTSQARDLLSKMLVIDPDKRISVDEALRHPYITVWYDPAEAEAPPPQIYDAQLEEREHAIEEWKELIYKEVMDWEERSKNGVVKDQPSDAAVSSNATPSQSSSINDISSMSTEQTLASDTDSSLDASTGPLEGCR

Chain of activated p38 (Q16539 whole entry, the tested form may be a part, canonical isoform): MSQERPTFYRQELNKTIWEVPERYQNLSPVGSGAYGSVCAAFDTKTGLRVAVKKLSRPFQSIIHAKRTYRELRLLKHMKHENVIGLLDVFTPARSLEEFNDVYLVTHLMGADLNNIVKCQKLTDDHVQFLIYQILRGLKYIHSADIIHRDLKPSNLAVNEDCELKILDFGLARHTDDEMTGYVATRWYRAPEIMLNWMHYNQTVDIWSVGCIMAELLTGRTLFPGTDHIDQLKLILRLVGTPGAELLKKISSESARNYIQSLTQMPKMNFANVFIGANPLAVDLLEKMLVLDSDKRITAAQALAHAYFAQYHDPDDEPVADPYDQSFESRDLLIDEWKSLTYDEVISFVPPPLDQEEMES
T1 sequence (P53779 40-402): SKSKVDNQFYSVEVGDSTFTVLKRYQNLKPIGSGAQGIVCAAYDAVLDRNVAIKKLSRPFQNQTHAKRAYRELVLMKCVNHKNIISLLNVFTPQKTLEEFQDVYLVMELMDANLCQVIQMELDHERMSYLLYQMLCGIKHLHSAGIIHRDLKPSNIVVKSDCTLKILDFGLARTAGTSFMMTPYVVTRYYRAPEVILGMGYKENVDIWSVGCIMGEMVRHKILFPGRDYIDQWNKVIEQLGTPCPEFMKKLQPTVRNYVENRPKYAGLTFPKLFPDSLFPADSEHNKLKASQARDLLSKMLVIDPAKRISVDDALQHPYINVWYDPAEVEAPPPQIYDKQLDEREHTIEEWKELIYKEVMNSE
Chain of JNK1 (P45983 whole entry, species assumed): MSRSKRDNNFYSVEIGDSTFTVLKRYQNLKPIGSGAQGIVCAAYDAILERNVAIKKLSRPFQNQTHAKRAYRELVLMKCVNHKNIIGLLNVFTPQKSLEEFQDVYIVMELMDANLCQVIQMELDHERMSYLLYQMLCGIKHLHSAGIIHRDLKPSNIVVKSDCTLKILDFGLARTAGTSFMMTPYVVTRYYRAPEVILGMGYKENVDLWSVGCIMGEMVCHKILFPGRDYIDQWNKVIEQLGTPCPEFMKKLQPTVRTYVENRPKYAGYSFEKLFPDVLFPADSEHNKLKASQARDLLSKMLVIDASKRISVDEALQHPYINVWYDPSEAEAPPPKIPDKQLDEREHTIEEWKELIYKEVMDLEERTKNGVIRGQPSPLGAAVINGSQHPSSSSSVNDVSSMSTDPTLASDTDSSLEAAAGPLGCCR

As for `Clc1ccc(Cl)c(-n2cc(-c3ccnc(NC4CCCCC4)n3)cn2)c1` [II-71], the Ki (usually a dissociation constant, usually derived from enzyme kinetics or from competition with a known ligand) on activated p38 was above 10000 nM; at JNK1, below 2000 nM; on activated JNK3, below 2000 nM; at JNK2, below 2000 nM. The p38/JNK3 at activated JNK3 is above 10.
In the case of `c1ccc(Cn2cc(-c3ccnc(NC4CCCCC4)n3)cn2)cc1` [II-65], the Ki on activated p38 was above 10000 nM; on JNK1 it was below 2000 nM; at activated JNK3, below 2000 nM; on JNK2, below 2000 nM. Also, the p38/JNK3 on activated JNK3 is recorded as above 10.
As to `Cc1c(-c2ccnc(Nc3ccc([N+](=O)[O-])cc3)n2)cnn1-c1ccccc1` [II-102], the Ki at activated p38 was above 10000 nM; on JNK1 it was below 2000 nM; on activated JNK3 it was below 2000 nM; at JNK2 it was below 2000 nM. Moreover, the p38/JNK3 on activated JNK3 was above 10.
Consider `Cc1c(-c2ccnc(Nc3ccc(Cl)cc3)n2)cnn1-c1ccccc1` [II-101], for which the Ki at activated p38 was above 10000 nM; on JNK1, below 2000 nM; at activated JNK3, below 2000 nM; on JNK2, below 2000 nM. Moreover, the p38/JNK3 on activated JNK3 is reported as above 10.
In the case of `Fc1ccc(-n2cc(-c3ccnc(NC4CCCCC4)n3)cn2)c(F)c1` [II-72, Cyclohexyl-{4-[l-(2,4-difluoro-phenyl)-1H-pyrazol-4-yl]-pyrimidin-2-yl}-amine], the inhibitory constant (Ki) at activated p38 is above 10000 nM; on JNK1, below 2000 nM; at activated JNK3 it was below 2000 nM; at JNK2 it was below 2000 nM. Besides, the p38/JNK3 on activated JNK3 is given as above 10.
Regarding `Cc1c(-c2ccnc(Nc3ccc(F)cc3)n2)cnn1-c1ccccc1` [II-100], the Ki was above 10000 nM on activated p38, below 2000 nM at JNK1, below 2000 nM at activated JNK3 and below 2000 nM on JNK2. The p38/JNK3 on activated JNK3 is above 10.
In the case of `COc1ccc(-n2cc(-c3ccnc(NC4CCCCC4)n3)cn2)cc1` [II-70], the Ki on activated p38 was above 10000 nM; at JNK1, 2000 to 10000 nM; on activated JNK3, below 2000 nM; at JNK2, 2000 to 10000 nM. Further, at activated JNK3, the p38/JNK3 result was “≧10”.
Regarding `c1ccc(-n2cc(-c3ccnc(NC4CCCCC4)n3)cn2)cc1` [II-67], the inhibition constant (Ki) is above 10000 nM at activated p38, below 2000 nM at JNK1, below 2000 nM on activated JNK3 and below 2000 nM on JNK2. Also, the p38/JNK3 at activated JNK3 is above 10.
